From US8252832B2, “Kinesin inhibitors as cancer therapeutics” (Novartis AG, priority 2007, dated 2012)
Marks after values point to notes of the source that are not given here.

Tested on: MV4; 11-luc disseminated AML disease
Assay: MV4; 11-luc disseminated disease model, tumor response and survival
Assay type: in vivo, mouse
Protocol: Subcutaneous tumor efficacy studies were performed using outbred athymic nu/nu mice approximately 6-8 weeks old (Charles River Laboratories, Hollister, Calif.). The efficacy study in the disseminated disease model was performed using immunodeficient NOD-SCID female mice approximately 7-8 weeks old (Jackson Laboratories, Bar Harbor, Me.). […] Routine animal care and assurance of welfare were as described above.
Human MV4; 11 acute myelogenous leukemia cells were obtained from American Tissue Culture Collection (catalog #CRL-9591, Rockville, Md.) and tested to be free of Mycoplasma sp. and murine viruses in the IMPACT1 PCR assay panel (RADIL, University of Missouri, Columbia, Mo.). For the disseminated disease model, a stable pool of MV4; 11 cells expressing the luciferase gene was received from Fangxian Sun at the Genomics Institute of the Novartis Research Foundation in San Diego, Calif. (MV4; 11-luc). The MV4; 11 cells were grown in Iscove's modified Dulbecco's medium (Mediatech Inc., catalog #15-016-CV) supplemented with 10% fetal bovine serum (JRH Biosciences, catalog #12003-1000M), 4 mM L-glutamine and 5 ng/mL recombinant human […] (GM-CSF) (R&D Systems, catalog #215-GM). MV4; 11-luc were grown in the same media, but with the addition of 2 micrograms/mL of puromycin for selection of luciferase expression. These cells were grown as suspension cultures, maintained at 37° C. in a humidified atmosphere containing 5% carbon dioxide. Cells were cultured for fewer than 10 passages prior to use. Cells were harvested at approximately 2 million cells/mL, and centrifuged at ˜800×g for 5 minutes at 4° C. and then resuspended in a cold HBSS (Mediatech Inc., catalog #21-021-CV) at a concentration of 25 million cells/mL (containing 50% Matrigel™, BD Biosciences, catalog #354234) for implantation subcutaneously (injection volume of 0.2 mL) or at a concentration of 100 million cells/mL for implantation intravenously (i.v.) via the tail vein (injection volume of 0.1 mL). Mice were irradiated with 3 gray for 3 minutes one day prior to the i.v. cell implant.
The compound IIa (free base) and SB-715992 (free base) were formulated in 20% Captisol for a dose volume of 8 mL/kg. Doses were adjusted to each animal's body weight.
For the efficacy evaluation in the disseminated disease model, female NOD-SCID mice received whole-body irradiation at 3 gray the day before tail vein injection of 10 million cells in 0.1 mL HBSS. Forty mice were randomized and enrolled on study 28 days post-implant, with a mean photon count (dorsal view+ventral view) of approximately 5×10^7 photons/second, as determined by bioluminescence imaging. Approximately 10 minutes prior to imaging, mice were injected i.p. with 150 mg/kg luciferin (Xenogen Corporation, Alameda, Calif.), followed by anesthetization with isoflurane. Photon emission was measured using a charge coupled device camera in the IVIS imaging system (Xenogen Corporation). Briefly, a gray-scale image of the mice was captured, followed by an overlay of a bioluminescence map representing the spatial distribution of photons detected from cleaved luciferin in the cancer cells expressing luciferase. Signal intensity was quantified using a customized version of the IGOR Pro version 4.09A Software (WaveMetrics, Inc., Lake Oswego, Oreg.) called Living Image version 2.50.2 (Xenogen). The sum of all detected photon counts from the dorsal+ventral views was determined. Bioluminescence of cancer cells in the animals was measured by imaging on designated days until the first mice developed hind limb paralysis due to disease burden, the main end point for when to humanely euthanize mice. The day of euthanasia for each mouse was recorded and the remaining percentage of mice surviving was plotted over time (Kaplan-Meier survival analysis). P values were calculated using the log-rank test (GraphPad Prism 4.0 software) to assess differences between treated and control groups (p<0.05 was considered significant). […]

CC(C)(C)[C@H](c1nc(-c2cc(F)ccc2F)cn1Cc1ccccc1)N(CC[C@H](N)CF)C(=O)CO [Compound IIa]
Median Day of Survival (0.25 mg/kg, q4d × 3, i.v): 27 days | Δ Tumor bioluminescence, Day 12 (0.25 mg/kg, q4d × 3, i.v): 4.3 × 10^8 photons/sec | ΔT/ΔC, Day 12 (%) (0.25 mg/kg, q4d × 3, i.v): 46% | Median Day of Survival (0.25 mg/kg, q4d × 3, i.v, listed as COMPOUND IIa): 27** day | Median Day of Survival (0.5 mg/kg, q4d × 3, i.v): 31 days | Regression, Day 12 (%) (0.5 mg/kg, q4d × 3, i.v): 9* % | Δ Tumor bioluminescence, Day 12 (0.5 mg/kg, q4d × 3, i.v): −4.0 × 10^6 photons/sec | Median Day of Survival (0.5 mg/kg, q4d × 3, i.v, listed as COMPOUND IIa): 31** day | Median Day of Survival (1 mg/kg, q4d × 3, i.v.): 30 days | Regression, Day 12 (%) (1 mg/kg, q4d × 3, i.v.): 80* % | Median Day of Survival (1 mg/kg, q4d × 3, i.v, listed as COMPOUND IIa): 30** day
